Here are results for eleven compounds from PubChem BioAssay (NCI).

Some test systems named below: BT-549 breast; HCT-116 colon; HL-60(TB) leukemia; K-562 leukemia; NCI/ADR-RES ovarian; PC-3 prostate; SK-MEL-2 melanoma; SNB-19 CNS; TK-10 renal; M14 melanoma.
Test in all cases: inhibition of tumour cell growth, NCI panel, 48 h

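Where inhibition never reached the appropriate level, the endpoint shown equals the highest concentration tested. Otherwise, values were interpolated linearly from a five-concentration, 48-hour dose response in 96-well plates. Here, GI50 denotes the concentration required for 50% inhibition of growth. Definition used: TGI = concentration required for complete inhibition of growth.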

Take `Cn1cccc1-c1cc(-c2ccc(Br)cc2)nc(N)c1C#N`: the GI50 with BT-549 breast was 69.7 µM; with HCT-116 colon it was over 100 µM; in the test on HL-60(TB) leukemia it was 0.413 µM; with K-562 leukemia it was over 100 µM; in the test with NCI/ADR-RES ovarian it was over 100 µM; in the test with PC-3 prostate it was over 100 µM. The GI50 in the test with SK-MEL-2 melanoma, in the test on SNB-19 CNS and with TK-10 renal was over 100 µM in each case. The TGI in the test with BT-549 breast, in the test with HCT-116 colon, in the test on HL-60(TB) leukemia, in the test with K-562 leukemia, in the test with NCI/ADR-RES ovarian and in the test on PC-3 prostate was over 100 µM each time. Moreover, the TGI with SK-MEL-2 melanoma, in the test on SNB-19 CNS and in the test on TK-10 renal was over 100 µM throughout.
Turning to `COc1cc2c(/C=C3\C(=O)Nc4ccc(Br)cc43)c(Cl)n(C)c2cc1C`, the GI50 is 1.49 µM with BT-549 breast; 1.61 µM in the test with HCT-116 colon; 3.09 µM in the test with HL-60(TB) leukemia; 1.96 µM in the test with K-562 leukemia; 1.8 µM in the test with M14 melanoma; 0.799 µM in the test with NCI/ADR-RES ovarian. For the same compound, the GI50 is 1.17 µM with PC-3 prostate, 1.74 µM with SK-MEL-2 melanoma, 2.57 µM in the test on SNB-19 CNS and 2.72 µM with TK-10 renal. Moreover, the TGI is 4.77 µM in the test on BT-549 breast; 7.17 µM with HCT-116 colon; 16.9 µM with HL-60(TB) leukemia; over 29.2 µM with K-562 leukemia; 6.01 µM in the test with M14 melanoma; 3.41 µM in the test with NCI/ADR-RES ovarian. For the same compound, the TGI in the test on PC-3 prostate came to 18.3 µM; in the test with SK-MEL-2 melanoma it was 5.7 µM; in the test on SNB-19 CNS, 48.8 µM; with TK-10 renal it was 9.19 µM.
`Cc1cc(S(N)(=O)=O)c(S/C(=N\NS(=O)(=O)c2ccc(Cl)cc2)c2ccc(Cl)cc2)cc1Cl`: the GI50 is over 100 µM in the test on BT-549 breast; over 100 µM with HCT-116 colon; 40.6 µM in the test with HL-60(TB) leukemia; 45.3 µM with K-562 leukemia; over 100 µM with M14 melanoma; over 100 µM with NCI/ADR-RES ovarian. The GI50 in the test with PC-3 prostate was 56.8 µM; in the test on SK-MEL-2 melanoma, over 100 µM; in the test on SNB-19 CNS it was over 100 µM; with TK-10 renal, over 100 µM. Moreover, the TGI in the test on BT-549 breast, in the test with HCT-116 colon, with HL-60(TB) leukemia, with K-562 leukemia, with M14 melanoma and with NCI/ADR-RES ovarian was over 100 µM throughout. In addition, the TGI in the test with PC-3 prostate, in the test with SK-MEL-2 melanoma, with SNB-19 CNS and with TK-10 renal was over 100 µM in each case.
For `COc1ccc(Cc2ccccc2C(=O)O)c2ccccc12`, the TGI in the test with BT-549 breast was over 100 µM; in the test on HCT-116 colon, 47.3 µM; in the test on HL-60(TB) leukemia, 46 µM; in the test with K-562 leukemia it was over 100 µM; in the test on M14 melanoma, over 100 µM; with NCI/ADR-RES ovarian, over 100 µM. In addition, the TGI in the test with PC-3 prostate is over 100 µM; with SK-MEL-2 melanoma it was 54.5 µM; in the test on SNB-19 CNS, over 100 µM; in the test on TK-10 renal it was 50.2 µM.
In the case of `COc1ccccc1Nc1nc(-c2cc3cccc(C(F)(F)F)c3oc2=O)cs1`, the GI50 is 0.26 µM in the test on BT-549 breast; 0.0805 µM in the test with HCT-116 colon; 0.186 µM with HL-60(TB) leukemia; 0.0538 µM in the test with K-562 leukemia; 0.111 µM in the test on M14 melanoma; 0.0468 µM in the test on NCI/ADR-RES ovarian. Moreover, the GI50 was 0.162 µM with PC-3 prostate, 0.262 µM in the test on SK-MEL-2 melanoma, 1.15 µM with SNB-19 CNS and 13.5 µM in the test on TK-10 renal. Further, the TGI was 11.1 µM in the test on HCT-116 colon; 0.521 µM with HL-60(TB) leukemia; over 100 µM in the test with K-562 leukemia; 5.55 µM with NCI/ADR-RES ovarian; over 100 µM in the test with PC-3 prostate; over 100 µM in the test with SK-MEL-2 melanoma. Moreover, the TGI is over 100 µM with SNB-19 CNS and 81.2 µM with TK-10 renal.
In the case of `COC(=O)c1ccc2c(c1)nc(-c1ccc(Cl)cc1)n2-c1cc(C(C)(C)C)[nH]n1`, the GI50 in the test on BT-549 breast is 3.35 µM; in the test on HCT-116 colon it was 3.46 µM; with HL-60(TB) leukemia, 4.03 µM; with K-562 leukemia, 4.2 µM; in the test with M14 melanoma, 2.9 µM; in the test on NCI/ADR-RES ovarian it was 2.72 µM. Besides, the GI50 with PC-3 prostate is 2.93 µM; with SK-MEL-2 melanoma it was 3.89 µM; with SNB-19 CNS, 4.31 µM; in the test on TK-10 renal it was 6.94 µM. Besides, the TGI with BT-549 breast was 11.5 µM; in the test with HCT-116 colon it was 12.3 µM; in the test with HL-60(TB) leukemia, 19 µM; in the test on K-562 leukemia, over 100 µM; in the test with M14 melanoma it was 8.22 µM; in the test on NCI/ADR-RES ovarian it was 7.35 µM. Besides, the TGI is 15.7 µM in the test with PC-3 prostate, 18.1 µM with SK-MEL-2 melanoma, over 100 µM in the test on SNB-19 CNS and over 100 µM in the test with TK-10 renal.
As to `CC(O)CN(CCN(CC(C)O)CC(C)O)CC(C)O.O=[N+]([O-])O.[Cu+2]` (configuration not stated), the GI50 in the test with BT-549 breast, with HCT-116 colon, with HL-60(TB) leukemia, in the test with K-562 leukemia, in the test with M14 melanoma and with NCI/ADR-RES ovarian was over 100 µM in each case. The GI50 was over 100 µM with PC-3 prostate, over 100 µM in the test on SK-MEL-2 melanoma, 30.5 µM with SNB-19 CNS and over 100 µM in the test with TK-10 renal. For the same compound, the TGI with BT-549 breast, with HCT-116 colon, with HL-60(TB) leukemia, with K-562 leukemia, with M14 melanoma and in the test on NCI/ADR-RES ovarian was over 100 µM each time. The TGI in the test with PC-3 prostate is over 100 µM; in the test on SK-MEL-2 melanoma, over 100 µM; with SNB-19 CNS it was 74.5 µM; with TK-10 renal, over 100 µM.
Regarding `Cn1c2ccccc2c2c3c(c4c5ccccc5n(CCCCCC#N)c4c21)C(=O)N(O)C3=O`, the GI50 is 2.5 µM in the test with BT-549 breast; 0.87 µM with HCT-116 colon; 0.381 µM in the test with HL-60(TB) leukemia; 0.71 µM with K-562 leukemia; 0.39 µM in the test with M14 melanoma; 0.873 µM in the test with NCI/ADR-RES ovarian. Besides, the GI50 in the test with PC-3 prostate was 2.22 µM; in the test on SK-MEL-2 melanoma, 1.54 µM; in the test on SNB-19 CNS, 0.545 µM; in the test with TK-10 renal, 3.94 µM. The TGI with BT-549 breast was 88.7 µM; in the test on HCT-116 colon it was 4.14 µM; in the test on HL-60(TB) leukemia it was 1.81 µM; in the test with K-562 leukemia, over 100 µM; in the test with M14 melanoma, over 100 µM; in the test with NCI/ADR-RES ovarian it was 24.2 µM. Also, the TGI in the test on PC-3 prostate was 8.4 µM; in the test with SK-MEL-2 melanoma it was 3.84 µM; in the test on SNB-19 CNS, over 100 µM; in the test on TK-10 renal it was 40 µM.
Turning to `CCCCCCCCSC1=CC(=O)C(OC)=C(OC)C1=O`, the GI50 is 7 µM with BT-549 breast; 1.19 µM in the test with HCT-116 colon; 0.437 µM with HL-60(TB) leukemia; 2.73 µM with K-562 leukemia; 2.06 µM in the test with M14 melanoma; 2.49 µM in the test with NCI/ADR-RES ovarian. The GI50 in the test on PC-3 prostate was 6.24 µM; in the test with SK-MEL-2 melanoma, 4.3 µM; in the test on SNB-19 CNS it was 13.7 µM; in the test with TK-10 renal, 2.06 µM. Further, the TGI in the test with BT-549 breast is 19.4 µM; with HCT-116 colon, 2.54 µM; in the test on HL-60(TB) leukemia, 21.4 µM; with K-562 leukemia, over 100 µM; in the test with M14 melanoma, 9.86 µM; in the test with NCI/ADR-RES ovarian, 7.1 µM. The TGI in the test on PC-3 prostate stood at 23.3 µM; with SK-MEL-2 melanoma it was 13.7 µM; in the test on SNB-19 CNS, 27.3 µM; in the test on TK-10 renal it was 3.95 µM.
Regarding `CN(C)/[N+]([O-])=N/Oc1cc(Nc2ccc(C(=O)O)cc2)c([N+](=O)[O-])cc1[N+](=O)[O-]`, the GI50 with BT-549 breast was 18.5 µM; in the test on HCT-116 colon it was 20.9 µM; in the test with HL-60(TB) leukemia it was 18.5 µM; in the test with K-562 leukemia, 38.2 µM; in the test with NCI/ADR-RES ovarian, 29.8 µM; in the test on PC-3 prostate, 26.5 µM. Besides, the GI50 in the test on SK-MEL-2 melanoma is 17.1 µM; in the test on SNB-19 CNS, 18.2 µM; in the test on TK-10 renal, 18.9 µM. Also, the TGI with BT-549 breast is 34.6 µM; in the test on HCT-116 colon it was 41.6 µM; with HL-60(TB) leukemia, 58.8 µM; with K-562 leukemia it was over 100 µM; in the test on NCI/ADR-RES ovarian, over 100 µM; in the test with PC-3 prostate it was 53.1 µM. Moreover, the results for the TGI in the test with SK-MEL-2 melanoma, with SNB-19 CNS and in the test on TK-10 renal were 39 µM, 35.3 µM and 72.7 µM, respectively.
As to `C=C1C(=O)O[C@H]2[C@H]1CC/C(COC(=O)CCC(=O)OC/C1=C/CC[C@@]3(C)O[C@H]3[C@H]3OC(=O)C(=C)[C@@H]3CC1)=C\CC[C@@]1(C)O[C@@H]21`, the GI50 was 1.4 µM in the test on BT-549 breast; 0.233 µM in the test on HL-60(TB) leukemia; 0.531 µM in the test with K-562 leukemia; 1.6 µM in the test on M14 melanoma; 14 µM with NCI/ADR-RES ovarian; 2.58 µM with PC-3 prostate. Moreover, the GI50 was 2.89 µM with SK-MEL-2 melanoma, 8.46 µM in the test with SNB-19 CNS and 1.75 µM in the test on TK-10 renal. For the same compound, the TGI in the test with BT-549 breast came to 2.83 µM; with HL-60(TB) leukemia, 0.812 µM; in the test on K-562 leukemia it was 4.34 µM; with M14 melanoma, 5.32 µM; in the test with NCI/ADR-RES ovarian it was 40.5 µM; in the test with PC-3 prostate, 7.86 µM. The TGI with SK-MEL-2 melanoma came to 9.38 µM; with SNB-19 CNS, 25 µM; in the test with TK-10 renal, 3.38 µM.
